Source: publication PMC9490042 (iScience, 2022)
Counter-ions that a name gives are not always drawn. Like-named read-outs stand apart in the source and are kept apart here.

Tests used:
Assay in all cases: steady-state tryptophan fluorescence quenching titration in PBS
Format in all cases: binding
[1] = target: T1, bovine serum albumin (BSA) (Bos taurus, UniProt P02769)
[2] = target: hen egg-white lysozyme (HEWL) (Gallus gallus, UniProt P00698)
[3] = target: T1, bovine serum albumin (BSA); remark: listed apart in the source

T1 sequence (P02769 25-607): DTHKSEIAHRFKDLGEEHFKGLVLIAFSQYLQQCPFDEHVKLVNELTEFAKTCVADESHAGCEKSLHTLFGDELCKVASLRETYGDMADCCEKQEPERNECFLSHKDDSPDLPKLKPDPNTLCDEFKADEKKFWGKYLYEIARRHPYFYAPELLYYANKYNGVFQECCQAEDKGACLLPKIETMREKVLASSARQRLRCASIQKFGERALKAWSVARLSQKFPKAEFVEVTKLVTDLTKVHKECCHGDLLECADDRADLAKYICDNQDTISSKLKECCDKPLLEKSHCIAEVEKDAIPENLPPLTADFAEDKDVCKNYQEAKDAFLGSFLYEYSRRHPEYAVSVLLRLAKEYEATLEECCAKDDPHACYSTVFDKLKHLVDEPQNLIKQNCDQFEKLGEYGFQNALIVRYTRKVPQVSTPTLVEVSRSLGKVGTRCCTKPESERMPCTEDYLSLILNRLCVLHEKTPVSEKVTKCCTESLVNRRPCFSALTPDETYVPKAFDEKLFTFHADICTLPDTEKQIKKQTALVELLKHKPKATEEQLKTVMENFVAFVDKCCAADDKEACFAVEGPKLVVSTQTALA
Chain of hen egg-white lysozyme (HEWL) (P00698 19-147): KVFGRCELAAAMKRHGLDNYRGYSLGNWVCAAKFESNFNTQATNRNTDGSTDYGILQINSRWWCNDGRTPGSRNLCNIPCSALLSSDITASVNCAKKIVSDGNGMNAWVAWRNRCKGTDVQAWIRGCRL

Row | SMILES | Kd [1] [µM] | Kd [2] [µM] | Kd [3] [µM]
1 | COc1cccc2c1C(=O)c1c(O)c3c(c(O)c1C2=O)C[C@@](O)(C(=O)CO)C[C@@H]3O[C@H]1C[C@H](N)[C@H](O)[C@H](C)O1 [Doxorubicin] | 16.5 ± 2.5 | – | –
2 | CCN(CC)CCCC(C)Nc1c2ccc(Cl)cc2nc2ccc(OC)cc12 (stereo not shown) [Quinacrine dihydrochloride] | 4.6 ± 1.1 | – | –
3 | Cn1cc(C2=C(c3ccc(Cl)cc3Cl)C(=O)NC2=O)c2ccccc21 [SB216763] | – | 1.7 ± 0.7 | 5.2 ± 1.2
